Laboratory results taken from the supplement of paper PMC10883282.

Assays:
Assay in all cases: relative viability vs DMSO control (72 h) (fraction); higher = more viable cells
RD = test system: RD
Method in brief: (§1)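 Densities for seeding sarcoma cell lines into 384-well plates were set to give 80–90% confluence. After 24 h, 2.5 µl of serially diluted compound from source plates of 10 mM to 0.0002 mM went in, and plates stayed 72 h at 37 °C in 5% CO2 with 0.1% DMSO vehicle and a 5 µM positive control. Percent growth from ATPLite readings, averaged over up to triplicate wells, served as relative viability, rescaled so 1 means full and 0 means none.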

VA-ES-BJ = test system: VA-ES-BJ
Method in brief: as §1

HS729 = test system: HS729
Method in brief: as §1

MES-SA = test system: MES-SA
Method in brief: as §1

SK-LMS-1 = test system: SK-LMS-1
Method in brief: as §1

Cn1cc(C2=C(c3cn(C4CCN(Cc5ccccn5)CC4)c4ccccc34)C(=O)NC2=O)c2ccccc21 [Enzastaurin]
relative viability
Settings	HS729	MES-SA	RD	SK-LMS-1	VA-ES-BJ
0.00017 µM	1.06	1.01	1.08	1.08	1.08
0.00051 µM	1.09	0.997	1.07	1.07	1.12
0.00152 µM	1.07	0.994	1.08	1.07	1.11
0.00457 µM	1.07	0.99	1.1	1.04	1.09
0.01372 µM	1.05	0.959	1.1	1.047	1.07
0.04115 µM	1.05	1.003	1.09	1.071	1.06
0.1235 µM	1.01	0.942	1.1	1.05	1.06
0.3704 µM	1.02	0.97	1.1	1.06	1.08
1.111 µM	1.06	0.952	1.12	0.9757	1.11
3.333 µM	1.13	0.964	1.1	0.841	1.19
10 µM	1.15	0.659	0.978	0.746	1.21

CC1(C)CC=C(c2nc(C3CC(C)(C)OC(C)(C)C3)ccc2NC(=O)c2nc(C#N)c[nH]2)CC1 [Edicotinib]
relative viability
Settings	HS729	MES-SA	RD	SK-LMS-1	VA-ES-BJ
0.00017 µM	1	0.945	1.123	1.01	1.04
0.00051 µM	0.931	0.962	1.09	1.02	1.05
0.00152 µM	0.953	0.935	1.12	1.04	1.04
0.00457 µM	0.909	0.939	1.07	1.04	1.06
0.01372 µM	0.89	0.9423	1.07	1.07	1.03
0.04115 µM	0.902	0.93	1.12	1.05	0.98
0.1235 µM	0.924	0.909	1.1	0.995	0.977
0.3704 µM	0.9	0.92	1.1	0.997	1.03
1.111 µM	0.894	0.868	1.07	0.929	1.04
3.333 µM	0.933	0.879	1.05	1.04	1.05
10 µM	0.999	0.887	1.06	1.013	1.04
